In patent US20080287511A1, “Anthelmintic Imidazol-Thiazole Derivates” (priority 2005, published 2008):
Values belong to the compound of their own block, whether it stands above or below them.

How the values were obtained:
[1] = test system: PolyRes strain of Haemonchus contortus (resistant against levamisole, mebendazole, ivermectin and closantel); assay: Efficacy study of anthelmintics in in vivo H. contortus/jirds model; design: species or system Haemonchus contortus in jirds (Meriones unguiculatus); settings: jirds, oral; for Med. W.b. (median worm burden): treated day 11, necropsy day 14; for % Efficacy: reduction of mean worm count vs control group; for anthelmintic efficacy compared with art known compounds (A) and (B): multi-resistant strain of Haemonchus contortus, comparison in words
Protocol: The anthelmintic efficacy of the compounds of the present invention was evaluated in an in vivo model using unmedicated jirds (Meriones unguiculatus), inoculated three times with approximately 300 exsheated infective larvae of Haemonchus contortus (multiresistant strain), treated orally with a test compound 11 days after their first infection with H. contortus larvae, and necropsied on day 14 to count the number of recovered H. contortus worms. The anthelmintic efficacy of the art known compounds (A) and (B) was also evaluated using the same model.
Female CRW jirds aged between 28 and 35 days and weighing 30-35 g (Charles River, Sulzfeld, Germany) were used. Three jirds each were assigned randomly upon arrival to translucent polysulfone individually ventilated cages (48×37.5×21 cm) containing wood shavings. Commercial rodent chow and water were given ad libitum. Following a four-day acclimation period, the jirds were artificially infected.
A PolyRes strain of Haemonchus contortus (resistant against levamisole, mebendazole, ivermectin and closantel) was used. This strain has been maintained in artificially infected male donor lambs. Individual feces containing Haemonchus eggs were collected in fecal bags. The fecal pellets were broken, mixed with charcoal, moistened and put in an incubator for embryonation at 28° C. and 95% relative humidity. Seven days later this mixture was placed in Baermann funnels and third stage ensheathed larvae were collected after 12 hours. These larvae were rinsed with water for cleaning and disinfected with a 2% formalin solution. Such larvae can be used immediately for artificial infection or can be stored in the fridge at about 8° C. for a maximum duration of 6 months. Infective larvae (<6 months old) were exsheathed by rinsing with a 3.3 vol % commercial sodium hypochlorite solution during 10 minutes, filtered through a Buchner funnel, rinsed with water, concentrated in a Baermann funnel, and collected after 2 hours. Exsheathed larvae prepared in this manner can be used for subsequent infection of jirds or laid in a supply for extended periods by cooling in the gas over liquid nitrogen during 1 hour and storing in liquid nitrogen at −196° C.
All jirds were inoculated orally with approximately 300 exsheathed infective larvae of H. contortus per dose on three consecutive days. Inoculations were administered using a blunted 18 G dosing needle fitted to a 1 ml syringe.
Eleven days after their first infection jirds were treated with test compounds, suspended or dissolved in 0.4 ml DMSO, and the dose to be tested was administered in a volume of 0.1 ml/50 g bodyweight via a blunted 18 G dosing needle fitted to a 1 ml syringe. Control animals, included in each experiment, remained untreated. Levamisole hydrochloride, mebendazole, ivermectin and closantel were used in different dosage titration experiments to validate the model.
All jirds were starved 20 hours before necropsy and killed on day 14 past first infection by CO2 inhalation. For worm recovery their stomachs were removed, opened longitudinally, and incubated in a beaker with 20 ml digestion fluid (10 g pepsin+30 ml concentrated hydrochloric acid) at 37° C. for 3 hours. Following digestion, the stomach content was passed through a tea-strainer, the passage fluid was catched in a sieve (32 μm) and the worms were recovered with tap water. The beakers were stored in the fridge for subsequent counting.
The content of each beaker was mixed, poured over in a 6-well plate in 6 aliquots, and the worms were counted under an inverted microscope.

melting point: 42 to 57 °C
Structure (SMILES): O=C(Nc1cccc([C@H]2CN3CCSC3=N2)c1)[C@H]1CCCO1 [Co. No. 1, (2R)-tetrahydro-furan-2-carboxylic acid (6S)-[3-(2,3,5,6-tetrahydro-imidazo[2,1-b]thiazol-6-yl)-phenyl]-amide]
Med. W.b. (median worm burden) ([1]; dose 2.5 mpk): 36.0 | % Efficacy ([1]; dose 2.5 mpk): 65.9% | Med. W.b. (median worm burden) ([1]; dose 5 mpk): 6.0 | % Efficacy ([1]; dose 5 mpk): 79.3% | Med. W.b. (median worm burden) ([1]; dose 10 mpk): 0.0 | % Efficacy ([1]; dose 10 mpk): 100.0% | anthelmintic efficacy compared with art known compounds (A) and (B) [1]: better demonstrated anthelmintic efficacy than the art known compounds (A) and (B)

Structure (SMILES): O=C(Nc1cccc([C@H]2CN3CCSC3=N2)c1)C1CCCO1 (stereo partly drawn) [Co. No. 4]
Med. W.b. (median worm burden) ([1]; dose 5 mpk): 5.0 | % Efficacy ([1]; dose 5 mpk): 68.8% | Med. W.b. (median worm burden) ([1]; dose 10 mpk): 3.0 | % Efficacy ([1]; dose 10 mpk): 85.0% | anthelmintic efficacy compared with art known compounds (A) and (B) [1]: better demonstrated anthelmintic efficacy than the art known compounds (A) and (B)

Structure (SMILES): O=C(Nc1cccc([C@H]2CN3CCSC3=N2)c1)c1ccco1 [Co. No. A, furan-2-carboxylic acid [3-(2,3,5,6-tetrahydro-imidazo[2,1-b]thiazol-6-yl)-phenyl]-amide, reference compound]
Med. W.b. (median worm burden) ([1]; dose 5 mpk): 11.0 | % Efficacy ([1]; dose 5 mpk): 35.3% | Med. W.b. (median worm burden) ([1]; dose 10 mpk): 7.0 | % Efficacy ([1]; dose 10 mpk): 65.0%

Structure (SMILES): c1cc(NCC2CCCO2)cc([C@H]2CN3CCSC3=N2)c1 (stereo partly drawn) [Co. No. B, (tetrahydrofuran-2-ylmethyl)-[3-(2,3,5,6-tetrahydro-imidazo[2,1-b]thiazol-6-yl)-phenyl]-amine, reference compound]
Med. W.b. (median worm burden) ([1]; dose 5 mpk): 10.0 | % Efficacy ([1]; dose 5 mpk): 55.6% | Med. W.b. (median worm burden) ([1]; dose 10 mpk): 14.0 | % Efficacy ([1]; dose 10 mpk): 60.6%
